Several values for one entry are separate records, joined by “and”; a condition that tells them apart may be missing. Equal entries are not always repeated. Toxic doses and inconclusive results are not listed. Rule for the calls: active = survival T/C of 150% or more; inactive = T/C below 125% in these data. Square brackets hold non-standard residues; d marks the D form. Peptide text beside a SMILES is read from it. Tyr(3-NO2) = N[CH](Cc1ccc(O)c([N+](=O)[O-])c1)C(=O)O
System: P388 leukemia ip, CD2F1 mice, survival T/C
Assay: NCI In Vivo Anticancer Drug Screen. Data for tumor model P388 Leukemia (intraperitoneal) in CD2F1 (CDF1) mice
Conditions: endpoint: median survival time, higher = longer survival
How it was run: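 Mice carrying the transplanted tumor received test compound or vehicle. Survival was recorded in each group, and the value is the treated-group measurement divided by that of the vehicle-treated control group.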

[1] = dose: 6.25 mg/kg/injection, schedule: Q01DX009 (ip), vehicle: saline with Tween-80
[2] = dose: 12.5 mg/kg/injection, schedule: Q01DX009 (ip), vehicle: saline with Tween-80
[3] = dose: 60.0 mg/kg/injection, schedule: Q01DX005 (ip), vehicle: saline with Tween-80
[4] = dose: 120.0 mg/kg/injection, schedule: Q01DX005 (ip), vehicle: saline with Tween-80
[5] = dose: 240.0 mg/kg/injection, schedule: Q01DX005 (ip), vehicle: saline with Tween-80
[6] = dose: 50.0 mg/kg/injection, schedule: Q01DX005 (ip), vehicle: Klucel (hydroxypropylcellulose) (HPC)
[7] = dose: 100.0 mg/kg/injection, schedule: Q01DX005 (ip), vehicle: Klucel (hydroxypropylcellulose) (HPC)
[8] = dose: 12.5 mg/kg/injection, schedule: Q01DX009 (ip), vehicle: saline
[9] = dose: 25.0 mg/kg/injection, schedule: Q01DX009 (ip), vehicle: saline
[10] = dose: 100.0 mg/kg/injection, schedule: Q04DX003 (ip), vehicle: saline with Tween-80
[11] = dose: 200.0 mg/kg/injection, schedule: Q04DX003 (ip), vehicle: saline with Tween-80
[12] = dose: 50.0 mg/kg/injection, schedule: Q01DX009 (ip), vehicle: saline with Tween-80
[13] = dose: 100.0 mg/kg/injection, schedule: Q01DX009 (ip), vehicle: saline with Tween-80
[14] = dose: 200.0 mg/kg/injection, schedule: Q01DX005 (ip), vehicle: Klucel (hydroxypropylcellulose) (HPC)

Measured: T/C

CCO[Si](CCSC(=O)N(CCCl)CCCl)(OCC)OCC
inactive: dose: 100.0 mg/kg/injection, schedule: Q04DX002 (ip), vehicle: saline with Tween-80 99 % of control | dose: 200.0 mg/kg/injection, schedule: Q04DX002 (ip), vehicle: saline with Tween-80 98 % of control | dose: 400.0 mg/kg/injection, schedule: Q04DX002 (ip), vehicle: saline with Tween-80 107 % of control

CC(=O)N/N=C/C=C/c1ccccc1
inactive: dose: 3.13 mg/kg/injection, schedule: Q01DX009 (ip), vehicle: saline with Tween-80 117 % of control | [1] 106 % of control | [2] 104 % of control

COc1nc(NC2OC(COC(C)=O)C(OC(C)=O)C(OC(C)=O)C2OC(C)=O)c(N=CC=Nc2c(NC3OC(COC(C)=O)C(OC(C)=O)C(OC(C)=O)C3OC(C)=O)nc(OC)n(C)c2=O)c(=O)n1C (stereo not drawn)
inactive: [3] 86 % of control | [4] 92 % of control | [5] 94 % of control

COCc1cccnc1
inactive: dose: 25.0 mg/kg/injection, schedule: Q01DX005 (ip), vehicle: Klucel (hydroxypropylcellulose) (HPC) 97 % of control | [6] 93 % of control | [7] 88 % of control

COc1ccc(Cc2cc(O)c(OC)cc2O)cc1
inactive: dose: 0.32 mg/kg/injection, schedule: Q01DX009 (ip), vehicle: saline with Tween-80 104 % of control | dose: 0.63 mg/kg/injection, schedule: Q01DX009 (ip), vehicle: saline with Tween-80 107 % of control | dose: 1.25 mg/kg/injection, schedule: Q01DX009 (ip), vehicle: saline with Tween-80 104 % of control | dose: 2.5 mg/kg/injection, schedule: Q01DX009 (ip), vehicle: saline with Tween-80 111 % of control | dose: 5.0 mg/kg/injection, schedule: Q01DX009 (ip), vehicle: saline with Tween-80 100 % of control and 108 % of control | dose: 10.0 mg/kg/injection, schedule: Q01DX009 (ip), vehicle: saline with Tween-80 106 % of control

COc1ccc(NS(=O)(=O)c2ccc(F)cc2)cc1
inactive: [3] 99 % of control | [4] 106 % of control | [5] 106 % of control

C/C(=N\Nc1ccc([N+](=O)[O-])cc1[N+](=O)[O-])c1ccc(C)cc1
inactive: dose: 50.0 mg/kg/injection, schedule: Q01DX001 (ip), vehicle: Klucel (hydroxypropylcellulose) (HPC) 105 % of control | dose: 100.0 mg/kg/injection, schedule: Q01DX001 (ip), vehicle: Klucel (hydroxypropylcellulose) (HPC) 107 % of control | dose: 200.0 mg/kg/injection, schedule: Q01DX001 (ip), vehicle: Klucel (hydroxypropylcellulose) (HPC) 95 % of control | dose: 400.0 mg/kg/injection, schedule: Q01DX001 (ip), vehicle: Klucel (hydroxypropylcellulose) (HPC) 91 % of control

O=C(O)C(O)C(O)C(=O)O.[Bi].[Na+] (stereo not drawn)
inactive: [8] 113 % of control | [9] 115 % of control | dose: 50.0 mg/kg/injection, schedule: Q01DX009 (ip), vehicle: saline 87 % of control and 98 % of control | dose: 100.0 mg/kg/injection, schedule: Q01DX009 (ip), vehicle: saline 93 % of control

COCC(=O)C(C(C)=O)C(c1ccc2c(c1)OCO2)C(C(C)=O)C(=O)COC (stereo not drawn)
inactive: [10] 90 % of control | [11] 90 % of control | dose: 400.0 mg/kg/injection, schedule: Q04DX003 (ip), vehicle: saline with Tween-80 95 % of control

O=S(=O)(Nc1ccccn1)c1ccc(N(CCCl)CCCl)cc1
inactive: [10] 95 % of control | [11] 95 % of control

C1CCN(P(N2CCCCC2)N2CCCCC2)CC1
inactive: dose: 25.0 mg/kg/injection, schedule: Q04DX003 (ip), vehicle: saline with Tween-80 100 % of control | dose: 50.0 mg/kg/injection, schedule: Q04DX003 (ip), vehicle: saline with Tween-80 100 % of control | [10] 102 % of control and 104 % of control

C=C1C(O)C2OC3(CCC(/C=C/C(C)C4CC5(C)SC5C5(OC(CC(C)(O)C(=O)O)CCC5O)O4)O3)CCC2OC1C(O)CC(C)C1OC2(CCCCO2)CCC1C (stereo not drawn)
inactive: dose: 1.87 micrograms/kg/injection, schedule: Q01DX005 (ip), vehicle: saline + alcohol 102 % of control and 103 % of control | dose: 3.75 micrograms/kg/injection, schedule: Q01DX005 (ip), vehicle: saline + alcohol 103 % of control and 120 % of control and 93 % of control | dose: 7.5 micrograms/kg/injection, schedule: Q01DX005 (ip), vehicle: saline + alcohol 100 % of control and 103 % of control | dose: 15.0 micrograms/kg/injection, schedule: Q01DX005 (ip), vehicle: saline + alcohol 111 % of control

COc1ccc2c(c1)CSC(c1ccccc1)=C2
inactive: [12] 100 % of control | [13] 93 % of control | dose: 200.0 mg/kg/injection, schedule: Q01DX009 (ip), vehicle: saline with Tween-80 94 % of control | dose: 400.0 mg/kg/injection, schedule: Q01DX009 (ip), vehicle: saline with Tween-80 92 % of control

O=c1c2ccccc2nc(-c2ccccc2)n1-c1cc(C(F)(F)F)cc(C(F)(F)F)c1
inactive: [1] 99 % of control | [2] 90 % of control

O=C(Oc1ccc[nH]c1=O)c1cccc(C(F)(F)F)c1
inactive: dose: 12.5 mg/kg/injection, schedule: Q01DX009 (ip), vehicle: distilled water + Tween-80 100 % of control | dose: 25.0 mg/kg/injection, schedule: Q01DX009 (ip), vehicle: distilled water + Tween-80 100 % of control | dose: 50.0 mg/kg/injection, schedule: Q01DX009 (ip), vehicle: distilled water + Tween-80 102 % of control | dose: 100.0 mg/kg/injection, schedule: Q01DX009 (ip), vehicle: distilled water + Tween-80 96 % of control | dose: 200.0 mg/kg/injection, schedule: Q01DX009 (ip), vehicle: distilled water + Tween-80 90 % of control

CC1=C(CO)C(=O)O[C@@H]([C@@H](C)[C@H]2CC[C@H]3[C@@H]4C[C@H]5O[C@]56[C@@H](O)C=CC(=O)[C@]6(C)[C@H]4CC[C@]23C)C1
inactive: dose: 2.5 mg/kg/injection, schedule: Q04DX003 (ip), vehicle: saline 102 % of control and 103 % of control | dose: 5.0 mg/kg/injection, schedule: Q04DX003 (ip), vehicle: saline 100 % of control and 103 % of control | dose: 10.0 mg/kg/injection, schedule: Q04DX003 (ip), vehicle: saline 109 % of control and 110 % of control | dose: 20.0 mg/kg/injection, schedule: Q04DX003 (ip), vehicle: saline 102 % of control and 116 % of control | dose: 40.0 mg/kg/injection, schedule: Q04DX003 (ip), vehicle: saline 109 % of control and 123 % of control

N#CCc1c(-c2ccccc2)c(-c2ccccc2)c2n1CCC2
inactive: [6] 98 % of control | [7] 99 % of control | [14] 96 % of control

CC1CCC(C)N1CCCCN1C(C)CCC1C (stereo not drawn)
inactive: dose: 3.13 mg/kg/injection, schedule: Q01DX009 (ip), vehicle: saline 104 % of control and 97 % of control | dose: 6.25 mg/kg/injection, schedule: Q01DX009 (ip), vehicle: saline 100 % of control and 104 % of control | [8] 100 % of control and 106 % of control | [9] 96 % of control

NC(=O)C(Cc1ccc(O)c([N+](=O)[O-])c1)NC(=O)C(N)Cc1ccccc1 (stereo not drawn) (H-Phe-[Tyr(3-NO2)]-NH2; configuration not given here)
inactive: [6] 103 % of control | [7] 96 % of control | [14] 96 % of control

S=c1[nH]ccs1
inactive: dose: 12.5 mg/kg/injection, schedule: Q01DX009 (ip), vehicle: water 99 % of control | dose: 25.0 mg/kg/injection, schedule: Q01DX009 (ip), vehicle: water 99 % of control | dose: 50.0 mg/kg/injection, schedule: Q01DX009 (ip), vehicle: water 95 % of control

O=N[O-].O=N[O-].[NH-]CC[NH-].[Pt+2]
inactive: dose: 25.0 mg/kg/injection, schedule: Q01DX009 (ip), vehicle: saline with Tween-80 95 % of control | [12] 100 % of control | [13] 95 % of control

From PubChem BioAssay AID330 (DTP/NCI, 2004)
